In patent US9315482B2, “Derivatives useful as antiviral agents” (priority 2010, dated 2016):
Read-outs that look alike come from different tables or passages of the source.

Tests used:
[1] = test system: measles virus (MV); experiment: Inhibition of measles virus replication in HEK-293T cells, recombinant measles virus expressing luciferase (MV-Luc); conditions: for in vitro replication of the measles virus (MV) (luciferase activity) / in vitro replication of measles virus (MV) (luciferase activity): MV-Luc; for in vitro replication of measles virus (luciferase activity): Example 32, HEK-293T cells, 1 M.O.I., 20, 10, 5 μg/ml, FIG. 6; for in vitro replication of measles virus (luciferase activity) / in vitro replication of measles virus expressing luciferase: 48 h; for in vitro replication of measles virus (MV) (luciferase activity): Example 37, HEK-293T cells, FIG. 11B; for in vitro replication of measles virus expressing luciferase: Example 33, HEK-293T cells, FIG. 7
[2] = test system: coxsackievirus B3; experiment: Inhibition of coxsackievirus B3 in HEK-293T cells, virus titers by TCID50; format: cell-based; conditions: 0.1 M.O.I., 10 μg/ml, 24 h, FIG. 5
Method: Finally, supernatants were harvested, and virus titers were determined by TCID50 (Tissue Culture Infecting Dose) on vera cells.

[3] = test system: HEK-293T cells; experiment: Cellular toxicity in HEK-293T cells (intracellular ATP, CellTiter-Glo); conditions: for cellular toxicity (intracellular ATP, CellTiter-Glo): HEK-293T cells, FIG. 12C
[4] = test system: herpes simplex virus 1 (HSV1); experiment: Antiviral activity against herpes simplex virus 1; format: cell-based; conditions: DNA virus
[5] = test system: human coronavirus 229E (229E); experiment: Inhibition of human coronavirus 229E in MRC5 cells, spike glycoprotein immunostaining; conditions: M.O.I.=0.01, compounds at 20 μg/ml, FIG. 1
[6] = test system: HEK-293T cells
[7] = test system: RSV B1; experiment: Inhibition of human respiratory syncytial virus in MRC5 cells, flow cytometry (RSV B1); format: cell-based; conditions: M.O.I of 1, 20, 10 μg/ml, 48 h, FIG. 4
Method: (§1) After 24 h, cell culture medium was removed, and cells were incubated for at 37° C. in the presence RSV A2 or RSV B1 at a M.O.I of 1. […] After 48 h, cells were harvested, treated with Cytofix/Cytoperm fixation/permeabilization solution (Becton-Dickinson), and stained with anti-H antibodies (ab20391, Abeam) to detect the virus glycoprotein. The percentage of infected cells was determined by flow cytometry analysis. Interferon beta (IFN-β) was used as a reference.

[8] = test system: West-Nile virus (WNV); experiment: Inhibition of West-Nile virus (WNV) in HEK-293T cells, glycoprotein immunostaining; conditions: M.O.I.=1, compounds at 5 μg/ml, FIG. 1
[9] = test system: RNA viruses; experiment: Antiviral activity against nine RNA viruses (summary); conditions: 2.5 to 20 μg/ml
[10] = test system: herpes simplex virus 2 (HSV2); experiment: Antiviral activity against herpes simplex virus 2; format: cell-based; conditions: DNA virus
[11] = test system: dengue virus (serotype 4); experiment: Inhibition of dengue virus replication in HEK-293T cells, glycoprotein immunostaining; format: cell-based; conditions: 0.1 M.O.I., 5, 10, 20 μg/ml, 72 h, FIG. 2
Description: Culture medium was removed, and cells were fixed in 90% acetone. Finally, infected cells were stained for dengue virus glycoprotein expression using a 1/1000 dilution of a specific antibody (clone 1H10-6; Millipore) in PBS+5% goat serum.

[12] = test system: human parainfluenza virus type 3 (hPIV3); experiment: Inhibition of human parainfluenza virus type 3 in HEK-293T cells, glycoprotein immunostaining; format: cell-based; conditions: 1 M.O.I., 2.5, 5, 10, 20 μg/ml, 48 h, FIG. 3
Description: Culture medium was removed, and cells were fixed in 90% acetone. Infected cells were stained with a FITC-conjugated monoclonal antibody (17-038; Argene) to detect the virus glycoprotein (green fluorescence). Cells were counterstained with Evans blue (red fluorescence).

[13] = test system: RSV A2; experiment: Inhibition of human respiratory syncytial virus in MRC5 cells, flow cytometry (RSV A2); format: cell-based; conditions: M.O.I of 1, 20, 10 μg/ml, 48 h, FIG. 4
Method: as §1

[14] = test system: ISRE-luciferase construct; experiment: Stimulation of the ISRE-luciferase construct; format: cell-based; conditions: selection screen
[15] = Metabolic stability over human liver microsomes; format: in vitro ADME; conditions: human liver microsomes 0.5 mg/mL, 1 mM NADPH, 2.5 μM compound, 37 °C
Method: The metabolic stability of compounds DD771 and GAC50 has been measured over human liver microsomes
Incubation (n=2) • A solution comprising each compound is prepared at a concentration of 1 mM in DMSO. • Said solution is diluted 1/100 in a phosphate buffer containing 0.5 mg/mL of human liver microsomes, 1 mM NADPH and 5 mM MgCl2.
The final concentration of each compound in the assay is 2.5 μM (0.25% de DMSO). • After homogenization (30 s), 50 μL are taken and mixed to 50 μL acetonitrile in order to precipitate the proteins present in the medium and to solubilise the compound. • The mixture is vortexed during 3 min then sonicated during 3 min and finally centrifuged during 10 min at 15 000 g and 4° C. • The same treatment is done at times 15, 30, 45 and 60 minutes. • The supernatants are injected and analysed by LC-MS/MS following standard method. • In parallel, incubation is carried out and in duplicate by substituting the co-factor NADPH by an equivalent buffer volume. • A sample is taken at t=60 min only.
Analyse LC-MS/MS: • All the samples are analysed by UHPLC coupled to a triple quadruple Shimadzu LC-MS 3080.
Calculations: • Half life: […] • Intrinsec clearance: CLint=V×ln2/t1/2
k: disappearance rate constant (min^−1)
V=incubation volume/protein mass (μL/mg)

[16] = Example 36, HEK-293T cells, 24 hours, FIG. 10
[17] = Example 34, HEK-293T cells, 48 hours, FIG. 8

ON=C1CCCc2occ(-c3cccc(Cl)c3)c21
melting point: 157 to 158 °C

COc1cc(-c2coc3c2C(=O)CCC3)cc(OC)c1OC
melting point: 140 to 141 °C

CC(=O)C1=C(C)OC([N+](=O)[O-])C1c1cccc(Cl)c1 (centres unmarked)
melting point: 84 to 85 °C

O=C1CCCc2occ(-c3cccc(Br)c3)c21
melting point: 106 to 107 °C

COc1ccc(Cl)cc1-c1coc2c1C(=O)CCC2
melting point: 136 to 137 °C

3-(1H-5-methylindol-3-yl)-2-nitro-2,3-dihydrofuro[3,2-c]chromen-4-one [DD778]
in vitro replication of the measles virus (MV) (luciferase activity) [1, 16]: blocked

O=C1CCCc2occ(-c3cc(Cl)cc(Cl)c3)c21
melting point: 105 to 106 °C

CC1(C)CC(=O)c2c(-c3cccc(Cl)c3)coc2C1
melting point: 104 to 105 °C

O=c1oc2ccccc2c2c1C(c1c[nH]c3ccccc13)C([N+](=O)[O-])O2 (centres unmarked) [Example 123-G05, 3-(1H-Indol-3-yl)-2-nitro-2,3-dihydrofuro[3,2-c]chromen-4-one]
in vitro production of coxsackievirus B3 (virus titers by TCID50) [2]: blocked
cellular toxicity (intracellular ATP, CellTiter-Glo) [3]: acceptable cytotoxicity
effects against HSV1 [4]: no effects
in vitro replication of 229E (spike glycoprotein expression by immunostaining) [5]: blocked
cytotoxic effects on HEK-293T cells [6]: absence of cytotoxic effects
in vitro replication of hRSV serotype B1 (percentage of infected cells) [7]: blocked
in vitro replication of WNV (glycoprotein expression by immunostaining) [8]: blocked
melting point: 248 to 250 °C (dec.)
cytopathic effects at concentrations blocking RNA virus replication [9]: no detectable cytopathic effects
effects against HSV2 [10]: no effects
in vitro replication of dengue virus (serotype 4) [11]: blocked
in vitro replication of measles virus (luciferase activity) [1]: blocked
in vitro replication of human parainfluenza virus type 3 [12]: blocked
in vitro replication of hRSV serotype A2 (percentage of infected cells) [13]: blocked
ability to stimulate the ISRE-luciferase construct [14]: ability to stimulate the ISRE-luciferase construct

C=Cc1cccc(-c2coc3c2C(=O)CCC3)c1 [GAC50, 3-(3-ethenylphenyl)-6,7-dihydro-5H-benzofuran-4-one]
half-life at 2.5 μM [15]: 11.3 min
microsomal CLint at 2.5 μM ([15]; read-out: Intrinsic Clearance): 49.1 µL/min/mg
melting point: 88 to 89 °C
in vitro replication of the measles virus (MV) (luciferase activity) [1, 17]: blocked
in vitro replication of measles virus (MV) (luciferase activity) ([1]; 24 hours): blocked

COc1ccc(Cl)cc1C1C2=C(CCCC2=O)OC1[N+](=O)[O-] (centres unmarked)
melting point: 171 to 172 °C

3-(1H-5-fluoroindol-3-yl)-2-nitro-2,3-dihydrofuro[3,2-c]chromen-4-one [DD776]
in vitro replication of the measles virus (MV) (luciferase activity) [1, 16]: blocked

COc1cccc(-c2coc3c2C(=O)CCC3)c1
melting point: 79 to 80 °C

CC1CC(=O)c2c(-c3cccc(Cl)c3)coc2C1 (centres unmarked)
melting point: 121 to 122 °C

O=C1CCCc2occ(-c3cccc([N+](=O)[O-])c3)c21
melting point: 94 to 95 °C

O=C1CCCc2occ(-c3ccc(Cl)cc3)c21
melting point: 104 to 105 °C

O=C1CCCc2occ(-c3cccc(F)c3)c21
melting point: 65 to 66 °C

O=C1CCCc2occ(-c3ccccc3Cl)c21
melting point: 147 to 148 °C

O=C1CCCc2occ(-c3cccc(Cl)c3)c21 [Example 129-G03, 3-(3-chlorophenyl)-6,7-dihydro-5H-benzofuran-4-one]
in vitro production of coxsackievirus B3 (virus titers by TCID50) [2]: blocked
cellular toxicity (intracellular ATP, CellTiter-Glo) [3]: acceptable cytotoxicity
cytotoxic effects on HEK-293T cells ([3]; selection screen): absence of cytotoxic effects
effects against HSV1 [4]: no effects
in vitro replication of 229E (spike glycoprotein expression by immunostaining) [5]: blocked
in vitro replication of hRSV serotype B1 (percentage of infected cells) [7]: blocked
in vitro replication of WNV (glycoprotein expression by immunostaining) [8]: blocked
melting point: 87 to 88 °C
cytopathic effects at concentrations blocking RNA virus replication [9]: no detectable cytopathic effects
effects against HSV2 [10]: no effects
in vitro replication of dengue virus (serotype 4) [11]: blocked
in vitro replication of measles virus (luciferase activity) [1]: blocked
in vitro replication of measles virus expressing luciferase [1]: blocked
in vitro replication of the measles virus (MV) (luciferase activity) [1, 17]: blocked
in vitro replication of the measles virus (MV) (luciferase activity) [1, 16]: blocked
in vitro replication of measles virus (MV) (luciferase activity) ([1]; 24 hours): blocked
in vitro replication of human parainfluenza virus type 3 [12]: blocked
in vitro replication of hRSV serotype A2 (percentage of infected cells) [13]: blocked
ability to stimulate the ISRE-luciferase construct [14]: ability to stimulate the ISRE-luciferase construct

O=C1CCCC2=C1C(c1ccccc1Cl)C([N+](=O)[O-])O2 (centres unmarked)
melting point: 162 to 163 °C

O=C1CCCc2occ(-c3ccc(Cl)c(Cl)c3)c21
melting point: 122 to 123 °C

3-(1H-5-chloroindol-3-yl)-2-nitro-2,3-dihydrofuro[3,2-c]chromen-4-one [DD771]
cellular toxicity (intracellular ATP, CellTiter-Glo) [6]: acceptable cytotoxicity
Half life [15]: No significative metabolism
Intrinsic Clearance [15]: No significative metabolism
in vitro replication of the measles virus (MV) (luciferase activity) [1, 16]: blocked
in vitro replication of measles virus (MV) (luciferase activity) ([1]; 24 hours): blocked

O=C1CCCc2occ(-c3cccc(I)c3)c21 [GAC25, 3-(3-iodophenyl)-6,7-dihydro-5H-benzofuran-4-one]
melting point: 135 to 136 °C
in vitro replication of measles virus expressing luciferase [1]: blocked
in vitro replication of the measles virus (MV) (luciferase activity) [1, 17]: blocked
